# Experimental data reported in ChEMBL document CHEMBL1137105, “New N-pyridinyl(methyl)-indolalkanamides acting as topical inflammation inhibitors” (2004).
# Active and inactive are the calls of the source. No cut-off for these calls is given here.
# What was measured:
# [1] = tested on: Mus musculus; experiment: Percent inhibition of acute TPA-induced ear swelling in mice upon topical application at 2x 100 ug; format: functional
# [2] = tested on: Mus musculus; experiment: inhibition of acute TPA-induced ear swelling in mice on oral administration of 0.1 nmol/kg; format: functional
# [3] = tested on: Mus musculus; experiment: inhibition of acute TPA-induced ear swelling in mice on oral administration of 0.1 nmol/kg; not active; format: functional, organism-based
# [4] = Inhibitory dose was determined; format: functional; settings: read-out: ID50 (the source's name)
# [5] = tested on: Mus musculus; experiment: inhibition of acute TPA-induced ear swelling in mice upon topical application of 2x 100 ug; format: functional
SMILES,Inhibition [1] [%],inhibition in vivo at 0.0001 µmol/kg [2] [%],further results
Cc1cc(C)nc(NC(=O)/C=C/c2cn(Cc3ccc(F)cc3)c3ccccc23)c1,66,80,
O=C(CCc1c[nH]c2ccccc12)NCc1cccnc1,,,inhibition [3]: inactive
CC(C)Cc1ccc(C(C)C(=O)O)cc1 (configuration not stated) [IBUPROFEN],59,35,
O=C(CCc1cn(Cc2ccc(Cl)cc2)c2ccccc12)Nc1ccncc1,,72,
Cc1cc(C)nc(NC(=O)CCc2c[nH]c3ccccc23)c1,66,72,
O=C(CCn1ccc2ccccc21)Nc1ccncc1,,77,
Cc1cc(C)nc(NC(=O)CCc2cn(Cc3ccc(Cl)cc3)c3ccc(Cl)cc23)c1,89,83,
O=C(CCc1cn(Cc2ccc(Cl)cc2)c2ccc(Cl)cc12)NCc1cccnc1,94,84,
O=C(CCc1cn(Cc2ccccc2)c2ccccc12)NCc1cccnc1,,70,
O=C(CCc1cn(Cc2ccc(Cl)cc2)c2ccc(Cl)cc12)Nc1ccncc1,,64,
O=C(CCc1cn(CCN2CCOCC2)c2ccccc12)Nc1ccncc1,,63,
Cc1cc(C)nc(NC(=O)CCc2cn(Cc3ccc(Cl)cc3)c3ccccc23)c1,,64,
O=C(CCc1cn(Cc2ccc(Cl)cc2)c2ccccc12)NCc1cccnc1,71,92,ED50 [4]: 24 µmol/kg
O=C(CCc1cn(Cc2ccccc2)c2ccccc12)Nc1ccncc1,90,84,
C[C@@H]1C[C@H]2[C@@H]3CCC4=CC(=O)C=C[C@]4(C)[C@@]3(F)[C@@H](O)C[C@]2(C)[C@@]1(O)C(=O)CO [DEXAMETHASONE],96,82,
O=C(CCc1c[nH]c2ccccc12)Nc1ccncc1,,77,Inhibition [5]: 38%
Cc1cc(C)nc(NC(=O)CCc2cn(Cc3ccccc3)c3ccccc23)c1,,61,
